Measurements as given in paper PMC11599716, “Trapping of spermine, Kukoamine A, and polyamine toxin blockers in GluK2 kainate receptor channels” (Nature Communications, 2024).
Where two headings read alike, the source gives them in different places.

Columns and labels:
[1] = target: T1, GluK2 kainate receptor (Rattus norvegicus, UniProt P42260, I567V/Y571C); assay: cryo-EM structure ([…] Å, with BPAM344); IC50 from whole-cell patch clamp in HEK293 cells; type: cell-based
T1 construct: gene Grik2; full-length rat GluK2 (GenBank CAA77778.1), V567, C571, Q621 (Q/R site unedited); LBD-TMD modelled (S429-R874); homotetramer

[2] = target: T1, GluK2 kainate receptor; assay: as above; type: cell-based; remark: listed apart in the source
[3] = target: T1, GluK2 kainate receptor; assay: as above; type: cell-based; remark: listed apart in the source
[4] = target: T1, GluK2 kainate receptor; assay: cryo-EM structures (four BPAM344 molecules per tetramer in all four structures)
[5] = target: T2, GluK2 kainate receptor (Rattus norvegicus, UniProt P42260); assay: whole-cell patch clamp in HEK293 cells expressing GluK2 (agonist, with ConA treatment); type: cell-based
T2 construct: gene Grik2; full-length rat GluK2, Q621 (Q/R site unedited), homotetramer

[6] = target: T1, GluK2 kainate receptor; assay: cryo-EM structure ([…] Å, with BPAM344); IC50 from whole-cell patch clamp in HEK293 cells; type: cell-based; remark: listed apart in the source

T1 sequence (P42260 32-908 I567V/Y571C): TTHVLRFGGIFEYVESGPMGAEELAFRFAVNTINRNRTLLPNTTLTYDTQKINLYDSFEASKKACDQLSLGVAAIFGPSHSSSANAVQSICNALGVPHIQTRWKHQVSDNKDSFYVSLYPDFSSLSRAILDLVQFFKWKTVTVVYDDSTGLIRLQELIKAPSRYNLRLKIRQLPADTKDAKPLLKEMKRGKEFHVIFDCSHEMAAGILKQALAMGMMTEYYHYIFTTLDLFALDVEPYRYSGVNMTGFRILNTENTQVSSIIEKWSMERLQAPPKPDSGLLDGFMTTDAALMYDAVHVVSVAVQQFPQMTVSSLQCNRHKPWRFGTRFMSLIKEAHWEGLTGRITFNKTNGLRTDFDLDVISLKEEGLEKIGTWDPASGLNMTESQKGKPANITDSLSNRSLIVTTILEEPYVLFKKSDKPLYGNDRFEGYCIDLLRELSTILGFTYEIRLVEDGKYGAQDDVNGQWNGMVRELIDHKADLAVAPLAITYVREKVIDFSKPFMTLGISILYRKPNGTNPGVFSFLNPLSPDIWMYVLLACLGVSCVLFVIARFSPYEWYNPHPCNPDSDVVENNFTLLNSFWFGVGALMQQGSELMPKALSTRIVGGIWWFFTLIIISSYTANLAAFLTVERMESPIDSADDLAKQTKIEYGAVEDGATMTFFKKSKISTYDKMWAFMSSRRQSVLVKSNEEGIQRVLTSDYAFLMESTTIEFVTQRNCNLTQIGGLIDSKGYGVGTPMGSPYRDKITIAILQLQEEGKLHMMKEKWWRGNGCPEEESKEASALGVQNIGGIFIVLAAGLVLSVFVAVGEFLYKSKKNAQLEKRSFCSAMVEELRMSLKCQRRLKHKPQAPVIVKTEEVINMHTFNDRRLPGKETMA
T2 sequence (P42260 32-908): as the sequence (P42260 32-908 I567V/Y571C) above, with V536I, C540Y counted along it

For CCCC(=O)N[C@H](Cc1ccc(O)cc1)C(=O)NCCCCCCCNCCCCN [PhTx-74], the IC50 [1] was 7.53 ± 0.35 µM.

For NCCCNCCCCNCCCN [SPM, spermine], the IC50 [2] was 7770 ± 510 µM.

In the case of NCCCNCCCCNCCC(=O)NCCCCCNC(=O)[C@@H](CC(N)=O)NC(=O)Cc1c[nH]c2ccccc12 [NpTx-8], the IC50 [3] is reported as 0.51 ± 0.01 µM.

O=S1(=O)NCN(C2CC2)c2ccc(F)cc21 [BPAM, BPAM344] was tested, and the “cryo-EM structures (four BPAM344 molecules per tetramer in all four structures)” value [4] was “improved map quality, with well-resolved densities for BPAM, carbohydrates, and annular lipids”.

C=C(C)[C@H]1CN[C@H](C(=O)O)[C@H]1CC(=O)O [KA, kainic acid] was tested, and the “whole-cell patch clamp in HEK293 cells expressing GluK2 (agonist, with ConA trea)” value [5] was “the agonist kainic acid (KA) elicited large inward currents with a steady-state value of IControl”.

With O=C(CCc1ccc(O)c(O)c1)NCCCNCCCCNCCCNC(=O)CCc1ccc(O)c(O)c1 [KukoA, Kukoamine A] the IC50 [6] was 704 ± 31 µM.
